Experiments:
SspI = experiment: Compatible solute assay: protection of SspI activity during heat treatment; assay type: biochemical; settings: for protection of SspI activity / protection of SspI function: 50° C. for 15 min; for protection of SspI activity, time course: at least 25 min at 50° C., without sugars almost 90% activity lost; for protection of SspI function: 14 mM sugar (physiological concentration)
Description: SspI (New England Biolabs) is a bacterial restriction enzyme that cuts double stranded DNA. In this assay it cuts pGEX-4T-2 circular plasmid twice and generates 3.77 kb and 1.19 kb bands in the reaction buffer (50 mM NaCl, 100 mM Tris-HCL, […] MgCl2, 0.025% Triton X-100 pH 7.5 at 25° C.). Five units of SspI in reaction buffer in the absence of maltose were exposed to 50° C. for 15 min where 50% of the enzyme activity was lost and also exposed to heat temperature in the presence of 14, 100, 200 and 400 mM maltose. Then substrate, 0.5 μg of pGEX-4T-2 circular plasmid (Amersham Biosciences, Piscataway, N.J.), was added to the reaction mixture and incubated at 37 ° C. for 1 hr. […] To visualize the products, 1% agarose gel was run and 22 μl of total 50 μl reaction was loaded on to gel. The gel was run at 100 V for 30 min and stained with EtBr to visualize the product. The top band was quantified to assess the protection by maltose. Also, the same assay was done using sucrose, trehalose and glucose to compare the ability of maltose as a compatible solute. A time course experiment was conducted where SspI was treated in the absence and in the presence of 400 mM maltose, glucose, sucrose and trehalose at 50° C. for 0, 5, 10, 15, 20 and 25 min.
Compatible solutes can stabilize proteins and membranes and contribute to cell osmotic potential during stress. The compatible solute potential of maltose was tested for three different enzymes namely; SspI, Glucose-6-phosphate dehydrogenase (G6PDH) and alcohol dehydrogenase (ADH). The restriction enzyme, SspI (FIG. 4A), cuts the substrate plasmid (pGEX-4T-2; 4.97 kb) twice leading to 1 and 4 kb plasmid fragments, when the enzyme is fully functional. […] When the intensity of the 5 kb top band and the 4 kb band was equal, the enzyme was considered to have lost 50% activity. Sspl was exposed to 50° C. for 15 min (FIG. 4A) in the absence of maltose (0 mM as a control) and in the presence of (14, 100, 200, and 400 mM) maltose. The 5 kb top band, which represented the loss of activity, was quantified to determine relative protection. When the enzyme was fully active, the top band was not visible (FIG. 4A, lane C) and the intensity of the top band increased with increased loss of enzyme activity (lane 2; 0 mM sugars). […] This protection increased with the increasing maltose concentration (FIG. 4A). At 200 and 400 mM, the intensity of the top band was much less compared to 0 mM maltose.

[1] = test system: photosynthetic electron transport chain of thylakoid membranes; experiment: In vitro heat shock of thylakoids, whole electron transport chain assay with DCPIP; assay type: biochemical, Pea; settings: 40° C. for 4 min, 30% activity remained without sugars
Description: (§1) Pea chloroplast was isolated according to Cline (1993). Aerial portions of 50 g pea plant were chopped into small pieces into 200 ml of ice cold GR-buffer (50 mM HEPES/adjust pH 7.5 with KOH, 0.33 M sorbitol, 1 mM MgCl2, 1 mM MnCl2, 2 mM EDTA, 5 mM Na-ascorbate, 1%, BSA) and homogenized using a probe (named PTA 35/2 m). The homogenate was filtered through 1 layer of Mira cloth and centrifuged at 2000×g for 3 min in a swing-out rotor. Pellet was resuspended in GR buffer, overlayed on a Percoll gradient and centrifuged at 2000×g for 15 min in a swing out rotor. Intact plastids were collected, diluted three times with buffer (50 MM HEPES/KOH pH 8, 0.33 M sorbitol), and pelleted 1.500×g for 5 min. The pellet was resuspended in 25 ml of buffer (50 mM HEPES/KOH pH 8, 0.33 M sorbitol) and chlorophyll content was quantified.
(§2) Thylakoids were isolated according to Santarius (1996). The isolated chloroplast pellets were ruptured by resuspending at 1 mg/ml in 10 mM Hepes/KOH, pH 8, 5 mM MgCl2, and incubating 2 min on ice. Then, wash buffer 1:1 (70 mM KCl, 30 mM NaNO3, 20 mM K2SO4, 5 mM MgCl2, and 5 mM Hepes/KOH pH 7.5) was added and centrifuged 3300×g for 8 min to collect thylakoid membranes. The pellet was washed at 1 mg/ml in wash buffer and centrifuged at 3300×g for 8 min. Thylakoids were resuspended in wash buffer corresponding to 1 mg/ml chlorophyll.
Heat shock: Aliquots of 0.2 ml thylakoid in wash buffer (70 mM KCl, 30 mM NaNO3, 20 mM K2SO4, 5 mM MgCl2, and 5 mM Hepes/KOH pH 7.5) corresponding to 0.5 mg/ml chlorophyll were, exposed to heat shock at 40° C. for 4 min in the absence and presence of 2.5, 14, 28, 56, and 112 mM maltose, glucose and trehalose. Full activity of the whole electron transport chain was measured after isolation of thylakoid membranes. Five independent experiments with 3 replications each were done.
(§3) Whole electron transport chain assay, with DCPIP: This assay was done according to Hipkins and Baker (1986). Assay buffer included 0.1 M sorbitol, 50 mM Hepes-KOH pH 7.6, 5 mM NaCl, 5 mM MgCl2, 0.1 mM DCPIP. The reaction was mixed after addition of thylakoid corresponding to 25 μg/ml chlorophyll and illuminated for 10 sec at 200 μmol photons m^−2 sec^−1 light intensity. Activity of electron transport chain was determined using redox dye DCPIP reduction at 595 nm.
Maltose, trehalose and glucose were tested in vitro for compatible solute properties using thylakoid membranes for the functionality of electron transport chain against heat denaturation (FIG. 5) and freezing stress (FIG. 6). Pea thylakoids were exposed to 40° C. for 4 min (FIG. 5), where 30% of electron transport chain activity remained in the absence of compatible solute sugars. Electron transport chain activity was followed by reduction of a redox dye 2,6-dichlorophenolindophenol (DCPIP), which accepts electrons from QB of PSII and FeSA of PSI (Häder and Tevini, 1987). At physiological concentrations of 2.5 and 14 mM maltose, photosynthetic electron transport chain activity was protected 3 and 5%. respectively, during heat shock.

[2] = test system: photosynthetic electron transport chain of thylakoid membranes; experiment: In vitro freezing stress of thylakoids, whole electron transport chain assay with DCPIP; assay type: biochemical, Pea; settings: −15° C. for 20 hr; for electron transport chain activity protection after freezing: 60% reduction without sugars
Description: as §1, §2
Freezing stress: Aliqutots of 0.2 ml thylakoid in wash buffer (70 mM KCl, 30 mM NaNO3, 20 mM K2SO4, 5 mM MgCl2, and 5 mM Hepes/KOH pH 7.5) corresponding to 0.5 mg/ml chlorophyll were exposed to freezing stress at −15° C. for 20 hrs in absence and presence of 2.5, 14, 28, 56, and 112 mM maltose, glucose and trehalose. Full activity of the whole electron transport chain was measured after isolation of thylakoid membranes. Four independent experiments with three (3) replications each were done.
as §3
Pea thylakoids were frozen (FIG. 6) at −15° C. for 20 hr, which caused a 60% reduction of electron transport chain activity. […] This protection increased gradually to 93% with the increasing concentration of maltose and was very similar to that of trehalose. Glucose at 112 mM gave 47% protection, which was much less than that of maltose or trehalose.

[3] = target: T1, Glucose-6-phosphate dehydrogenase (G6PDH) (Leuconostoc mesenteroides, UniProt P11411); experiment: Compatible solute assay: protection of G6PDH activity during heat shock; assay type: biochemical; settings: 14, 100, 200, 400 mM sugar, 48° C. for 15 min
T1 construct: purchased Worthington Biochemical Company
Description: Glucose-6-phosphate dehydrogenase (G6PDH): Lyophilized G6PDH from Leuconostoc mesenteroides was purchased from Worthington Biochemical Company. G6PDH in 50 mM Tris-HCl pH 7.8 was exposed to 48° C. for 15 min, which reduced activity by 50%. G6PDH in 50 mM Tris-HCl pH 7.8 was heat shocked in the absence and presence of 14, 100, 200, and 400 mM sugars: maltose, trehalose, glucose and sucrose. […] The reaction (1.5 ml) included 2.97 mM MgCl2, 50 mM Tris-HCl pH 7.8, 0.6 mM β-NADP^+ (freshly prepared), 10 mM Glucose-6-phosphate , and 595 ng heat shocked G6PDH. Production of NADPH was followed for 3 min at 340 nm using Lambda 3A UV/VIS spectrophotometer (PERKIN-ELMER). A time course experiment with two replications was conducted where G6PDH was treated in the absence and in the presence of 400 mM maltose, glucose, sucrose and trehalose at 48° C. for 0, 10, 15, 20 and 25 min.
To test whether this protection is general, compatible solute assays were performed using G6PDH, which uses D-glucose-6-phosphate and NAD(P)^+ as substrates to produce D-glucono-δ-lactone-P and NAD(P)H (FIG. 4B). […] The same performance was seen (FIG. 7B), when the time was extended to 25 min in the presence of 400 mM of the above sugars.

T1 sequence (P11411 whole entry): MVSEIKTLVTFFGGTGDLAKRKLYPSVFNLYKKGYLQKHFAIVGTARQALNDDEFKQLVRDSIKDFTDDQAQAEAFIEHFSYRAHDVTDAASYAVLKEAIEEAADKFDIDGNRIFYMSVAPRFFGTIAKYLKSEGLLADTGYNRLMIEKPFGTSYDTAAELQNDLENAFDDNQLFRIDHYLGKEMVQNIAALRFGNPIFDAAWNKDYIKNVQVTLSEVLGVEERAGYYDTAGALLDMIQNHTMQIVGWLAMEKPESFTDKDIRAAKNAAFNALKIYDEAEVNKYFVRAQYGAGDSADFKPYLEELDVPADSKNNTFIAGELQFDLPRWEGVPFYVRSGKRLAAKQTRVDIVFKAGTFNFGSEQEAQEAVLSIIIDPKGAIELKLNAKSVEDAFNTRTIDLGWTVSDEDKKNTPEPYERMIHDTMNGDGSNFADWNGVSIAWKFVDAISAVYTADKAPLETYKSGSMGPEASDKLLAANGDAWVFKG

Compound: O=C[C@H](O)[C@@H](O)[C@H](O)[C@H](O)CO [glucose, reference compound]
- protection of SspI activity (SspI; 400 mM sugar): 100%
- protection of SspI activity, time course (SspI; 400 mM sugar): 100%
- electron transport chain activity protected during heat shock ([1]; 112 mM sugar): 30%
- electron transport chain activity protection after freezing ([2]; 112 mM sugar): 47%

Compound: OC[C@H]1O[C@H](O[C@H]2[C@H](O)[C@@H](O)[C@H](O)O[C@@H]2CO)[C@H](O)[C@@H](O)[C@@H]1O [maltose, 4-O-α-D-Glucopyranosyl-β-D-glucose]
- protection of SspI function (SspI): able to partially protect SspI function
- protection of SspI function (SspI; listed as Maltose): performed as well as trehalose
- protection of SspI activity (SspI; 200 mM sugar): 80-90%
- protection of SspI activity (SspI; 400 mM sugar): 85-90%
- protection of SspI activity, time course (SspI; 400 mM sugar): about 90%
- protection of G6PDH activity [3]: performed as well as the other compatible solute sugars
- electron transport chain activity protected during heat shock ([1]; 2.5 mM sugar): 3%
- electron transport chain activity protected during heat shock ([1]; 14 mM sugar): 5%
- electron transport chain activity protected during heat shock ([1]; 112 mM sugar): 45%
- electron transport chain activity protection after freezing ([2]; 2.5 mM sugar): 2%
- electron transport chain activity protection after freezing ([2]; 14 mM sugar): 24%
- electron transport chain activity protection after freezing, reached with increasing concentration ([2]; increasing concentration (concentration not given; up to 112 mM tested)): 93%

Compound: OC[C@H]1O[C@@](CO)(O[C@H]2O[C@H](CO)[C@@H](O)[C@H](O)[C@H]2O)[C@@H](O)[C@@H]1O [sucrose]
- protection of SspI activity (SspI; 400 mM sugar): 100%
- protection of SspI activity, time course (SspI; 400 mM sugar): 100%

Compound: OC[C@H]1O[C@H](O[C@H]2O[C@H](CO)[C@@H](O)[C@H](O)[C@H]2O)[C@H](O)[C@@H](O)[C@@H]1O [trehalose]
- protection of SspI activity (SspI; 200 mM sugar): 100%
- protection of SspI activity (SspI; 400 mM sugar): 100%
- protection of SspI activity, time course (SspI; 400 mM sugar): 100%
- electron transport chain activity protected during heat shock ([1]; 112 mM sugar): 54%

From patent US20040091900A1, “Materials and methods for providing plants with increased resistance to environmental stress” (priority 2002, published 2004)
